In US8603493B2, “Carbosilane dendrimers, preparation method thereof and use of same” (Dendrico, S.L., priority 2005, dated 2013):

Legend:
PBMC = assay: Transfection test of PBMC (confocal microscopy); format: cell-based, human; settings: after 48 hours
Experimental: After incubations with the mixtures containing fluorescent ODNs, dendriplexes, dendrimers or RPMI, the cells were treated for the subsequent acquisition of images in the conventional confocal or fluorescence microscope. The cells were adhered to glass slides with wells of 30 mm in diameter by Poly-L-lysine, (PLL) (Sigma®). To do this, the slides were preincubated with 30 μl of PLL during 2 hours in an incubator at 37° C. and 5% CO2. After this incubation, the excess PLL was washed with PBS. The cells from each treatment that were going to be adhered in the PLL were washed twice with PBS and were labelled for 1 minute with 0.8% Trypan Blue (Sigma®) to then show the […] cells. They were again washed twice with PBS. At that time the cells were added to the well (100,000/well), being disposed on the PLL during 1 hour in an incubator at 37° C. and 5% CO2. After this hour, the excess volume was washed with PBS and the cells were treated with recently prepared 3% paraformaldehyde (PFA) (within 2 weeks of its use) during 10 minutes. […] Finally, the preparation was mounted using a special medium for fluorescence (DAKO Cytomation Fluorescent Mounting Medium®) with antifading (designed to protect the sample from deterioration caused by lasers). […] After the capture of images, it was analysed using Leica® software. […]

HIVNL4.3 = assay: HIV inhibition test in PBMC; format: cell-based; settings: NN 1, 3 and 5 μM before or after infection, 0.4 MOI, 24 h
Experimental: The HIVNL4.3 virus strain was then added at a concentration of 1 particle per cell (1 MOI). The MT-2 and the virus were cultured during at least 2 hours at 37° C., stirring the culture every 15-30 minutes. Finally, the cultures (cells-virus) were washed twice to remove the virus which had not integrated in the cell genome. The cells were transferred and cultured in 25 cm^2 bottles in the same culture medium. […] All of them were placed in octuplicate and were maintained at 37° C. in CO2 atmosphere during a week. After this time, the titering was read by display of the cytopathic effect and […] formation. The titering was calculated by applying Spearman-Karber's formula^[30], which serves to quantify the number of particles of virus per ml of medium in a culture in which serial dilutions of the concentrate of virus to titer have been seeded in octuplicate. The PBMC were stimulated during 48 hours with 2 μg/ml of PHA and 100 IU of IL-2, to provoke a polyclonal activation; after 24 hours the cells were washed with PBS. […] The cultures were incubated at 37° C. and they were maintained in a humidified atmosphere with 5% CO2. […] To eliminate the influence of the possible toxicity of the dendrimer on the number of cells and the quantity of viral copies, the number of virus copies was adjusted to the percentage of live cells to be able to make comparisons between different dendrimer concentrations. […]

Structure (SMILES)	fluorescence pattern after transfection with PPT dendriplexes (PBMC)	infection of PBMC by HIV (HIV DNA copies/10^6 cells adjusted to % live cells) (HIVNL4.3)
C[Si](C)(CCCN)CCC[Si](C)(CCC[Si](C)(C)CCCN)CCC[Si](CCC[Si](C)(CCC[Si](C)(C)CCCN)CCC[Si](C)(C)CCCN)(CCC[Si](C)(CCC[Si](C)(C)CCCN)CCC[Si](C)(C)CCCN)CCC[Si](C)(CCC[Si](C)(C)CCCN)CCC[Si](C)(C)CCCN.Cl.Cl.Cl.Cl.Cl.Cl.Cl.Cl [ClNH4, 2G-[Si(CH2)3NH3^+Cl^−]8]	fluorescence pattern in aggregates	
CN(CCO[Si](C)(C)CCC[Si](C)(CCC[Si](CCC[Si](C)(CCC[Si](C)(C)OCCN(C)CC[N+](C)(C)C)CCC[Si](C)(C)OCCN(C)CC[N+](C)(C)C)(CCC[Si](C)(CCC[Si](C)(C)OCCN(C)CC[N+](C)(C)C)CCC[Si](C)(C)OCCN(C)CC[N+](C)(C)C)CCC[Si](C)(CCC[Si](C)(C)OCCN(C)CC[N+](C)(C)C)CCC[Si](C)(C)OCCN(C)CC[N+](C)(C)C)CCC[Si](C)(C)OCCN(C)CC[N+](C)(C)C)CC[N+](C)(C)C.[I-].[I-].[I-].[I-].[I-].[I-].[I-].[I-] [NN, 2G-[Si(O(CH2)2N(Me)(CH2)2NMe3^+I^−)]8]		good capacity for preventing the infection of lymphocytes by the HIV virus
